# Legend:
# CD8^+ T cells = assay: Spleen lymphocyte populations by flow cytometry, CD8+ T cells; type: in vivo, MRI-lpr mice; conditions: flow cytometry after twelve weeks (FIG. 3)
# Excerpt: (§1) MRI-lpr mice were used to study the effects of a combination of DMG and PCE on components of the immune system and on the progression of the SLE disease. Forty MRI-lpr mice were divided into four groups of ten mice each: a control group, a PCE treated group, a DMG treated group, and a PCE-DMG treated group. The control group was given standard mouse chow and water. […] The PCE group was given a PCE-mouse chow mix and water. The PCE-DMG combination group was given a PCE-mouse chow mix and DMG water. […] The mice were given food and water ad libitum. It is estimated that the mice, with a size range of 30–50 grams, consumed about 1–3 mg/day of DMG and 2–6 mg/day of PCE. The mice were weighed weekly and 100 ul of blood was collected via orbital bleed on a weekly basis. The collected blood was centrifuged and the serum was recovered and stored at −20° C. for analysis at the end of the twelve week experiment. After twelve weeks, the mice were sacrificed and the spleens, kidneys, and livers were harvested. […] The spleens were processed and the cells recovered were quantified by flow cytometry using fluorescent anti-CD4, anti-CD8 and anti-CD19 antibodies (Pharmingen, San Diego, Calif.). Cytokine levels in the serum and anti-single stranded and double stranded DNA antibody levels in the serum were determined using an enzyme linked immunosorbent assay (ELISA).
# CD19^+ B cell = assay: Spleen lymphocyte populations by flow cytometry, CD19+ B cells; type: in vivo, MRI-lpr mice; conditions: flow cytometry after twelve weeks (FIG. 3)
# Excerpt: as §1
# il-6 = assay: Serum cytokine ELISA, il-6; type: in vivo, MRI-lpr mice; conditions: ELISA (FIG. 2)
# Excerpt: as §1
# il-10 = assay: Serum cytokine ELISA, il-10; type: in vivo, MRI-lpr mice; conditions: ELISA (FIG. 2)
# Excerpt: as §1
# anti-ssDNA antibody = assay: Serum anti-ssDNA antibody ELISA; type: in vivo, MRI-lpr mice; conditions: time course to 11th week; versus control (FIG. 5)
# Excerpt: as §1
# [1] = system: humoral and cellular immunity; conditions: Graber et al., 1981; cited from earlier work
# lactic acid levels = conditions: animals under extreme stress; cited from earlier work
# [2] = system: B-cells, T cells and macrophages; conditions: in humans; cited from earlier work
compound,measurement,setting,value
"CN(C)CC(=O)O [DMG, N,N-dimethylglycine]",CD8^+ T cells,CD8^+ T cells,No effect
same,CD19^+ B cell percentages,CD19^+ B cell,No effect
same,levels of serum il-6,il-6,significantly lower levels of il-6 than control animals
same,levels of serum il-10,il-10,higher levels of IL-10 than in controls
same,anti-ssDNA antibody levels in the serum,anti-ssDNA antibody,appeared to be leveling out
same,effect on humoral and cellular immunity,[1],stimulation of both humoral and cellular immunity
same,lactic acid levels,lactic acid levels,decreased lactic acid levels
same,oxygen utilization,lactic acid levels,increased oxygen utilization
same,B-cell antibody responses,[2],much higher antibody responses
same,activity of T cells and macrophages,[2],enhanced
